US12173020B2, “New-type oxazolidinone compounds and preparation method therefor” (priority 2019, dated 2024)

Experiments:
[1] = test system: vancomycin-resistant Enterococcus (VRE); assay: agar dilution method, inhibitory effect on VRE; assay type: cell-based; conditions: for MIC50: Enterococcus, read-out: Minimum inhibitory concentration (MIC50, μg/ml) VRE
Description: (§1) In order to determine the antibacterial activity of these new oxazolidinone-based compounds, an agar dilution method was used to test the inhibitory effect on methicillin-resistant Staphylococcus aureus (MRSA) and vancomycin-resistant Enterococcus (VRE). The bacteria inhibition effect was expressed as minimum inhibitory concentration (MIC50, μg/ml) The test results are shown in the following table.

[2] = test system: methicillin-resistant Staphylococcus aureus (MRSA); assay: agar dilution method, inhibitory effect on MRSA; assay type: cell-based; conditions: for MIC50: Staphylococcus aureus, read-out: Minimum inhibitory concentration (MIC50, μg/ml) MRSA
Description: as §1

Row | Compound | MIC50 [1] [µg/mL] | MIC50 [2] [µg/mL] | Minimum inhibitory concentration (MIC50, μg/ml) VRE [1] [µg/mL] | Minimum inhibitory concentration (MIC50, μg/ml) MRSA [2] [µg/mL]
1 | CCn1nnc(-c2ccc(-c3ccc(N4C[C@@H](C(O)CF)OC4=O)cc3F)cn2)n1.O=P(O)(O)O (stereo partly drawn) [compound 136, (S)-3-(3-fluoro-4-(6-(2-ethyl-2H-tetrazol-5-yl)pyridin-3-yl)phenyl)-5-(1-hydroxy-2-fluoroethyl) oxazolidin-2-one phosphate] | 0.2 | 0.4 |  | 
2 | CCCn1nnc(-c2ccc(-c3ccc(N4C[C@H](C(OP(=O)(O)O)C(F)F)OC4=O)cc3F)cn2)n1 (stereo partly drawn) [compound 139, (R)-3-(3-fluoro-4-(6-(2-propyl-2H-tetrazol-5-yl)pyridin-3-yl)phenyl)-5-(1-hydroxy-2-difluoroethyl) oxazolidin-2-one phosphate] |  |  | 0.9 | 0.8
3 | C=Cn1nnc(-c2ccc(-c3ccc(N4C[C@@H](C(O)C5CC5)OC4=O)cc3F)cn2)n1.O=P(O)(O)O (stereo partly drawn) [compound 156, (S)-3-(3-fluoro-4-(6-(2-vinyl-2H-tetrazol-5-yl)pyridin-3-yl)phenyl)-5-(1-hydroxy-1-cyclopropylmethyl) oxazolidin-2-one phosphate] | 0.4 | 0.4 |  | 
4 | CCCn1nnc(-c2ccc(-c3ccc(N4C[C@@H](C(O)C(F)(F)F)OC4=O)cc3F)cn2)n1.O=P(O)(O)O (stereo partly drawn) [compound 104, (S)-3-(3-fluoro-4-(6-(2-propyl-2H-tetrazol-5-yl)pyridin-3-yl)phenyl)-5-(1-hydroxy-2-trifluoroethyl) oxazolidin-2-one phosphate] |  |  | 0.5 | 0.5
5 | CCn1nnc(-c2ccc(-c3ccc(N4C[C@@H](C(O)C(F)F)OC4=O)cc3F)cn2)n1.O=P(O)(O)O (stereo partly drawn) [compound 134, (S)-3-(3-fluoro-4-(6-(2-ethyl-2H-tetrazol-5-yl)pyridin-3-yl)phenyl)-5-(1-hydroxy-2-difluoroethyl) oxazolidin-2-one phosphate] |  |  | 0.5 | 0.5
6 | CCCn1nnc(-c2ccc(-c3ccc(N4C[C@@H](C(O)C5CC5)OC4=O)cc3F)cn2)n1.O=P(O)(O)O (stereo partly drawn) [compound 144, (S)-3-(3-fluoro-4-(6-(2-propyl-2H-tetrazol-5-yl)pyridin-3-yl)phenyl)-5-(1-hydroxy-1-cyclopropylmethyl) oxazolidin-2-one phosphate] | 0.4 | 0.4 |  | 
7 | CCCn1nnc(-c2ccc(-c3ccc(N4C[C@H](C(O)C5CC5)OC4=O)cc3F)cn2)n1.O=P(O)(O)O (stereo partly drawn) [compound 143, (R)-3-(3-fluoro-4-(6-(2-propyl-2H-tetrazol-5-yl)pyridin-3-yl)phenyl)-5-(1-hydroxy-1-cyclopropylmethyl) oxazolidin-2-one phosphate] | 0.2 | 0.3 |  | 
8 | CC(O)[C@H]1CN(c2ccc(-c3ccc(-c4nnn(C5CC5)n4)nc3)c(F)c2)C(=O)O1.O=P(O)(O)O (stereo partly drawn) [compound 113, (R)-3-(3-fluoro-4-(6-(2-cyclopropyl-2H-tetrazol-5-yl)pyridin-3-yl)phenyl)-5-(1-hydroxyethyl) oxazolidin-2-one phosphate] | 0.2 | 0.2 |  | 
9 | Cn1nnc(-c2ccc(-c3ccc(N4C[C@@H](C(O)C5CC5)OC4=O)cc3F)cn2)n1.O=P(O)(O)O (stereo partly drawn) [compound 132, (S)-3-(3-fluoro-4-(6-(2-methyl-2H-tetrazol-5-yl)pyridin-3-yl)phenyl)-5-(1-hydroxy-1-cyclopropylmethyl) oxazolidin-2-one phosphate] | 0.3 | 0.3 |  | 
10 | C=Cn1nnc(-c2ccc(-c3ccc(N4C[C@@H](C(O)CF)OC4=O)cc3F)cn2)n1.O=P(O)(O)O (stereo partly drawn) [compound 154, (S)-3-(3-fluoro-4-(6-(2-vinyl-2H-tetrazol-5-yl)pyridin-3-yl)phenyl)-5-(1-hydroxy-2-fluoroethyl) oxazolidin-2-one phosphate] | 0.3 | 0.4 |  | 
11 | Cn1nnc(-c2ccc(-c3ccc(N4C[C@@H](C(OP(=O)(O)O)C(F)F)OC4=O)cc3F)cn2)n1 (stereo partly drawn) [compound 128, (S)-3-(3-fluoro-4-(6-(2-methyl-2H-tetrazol-5-yl)pyridin-3-yl)phenyl)-5-(1-hydroxy-2-difluoroethyl) oxazolidin-2-one phosphate] |  |  | 0.5 | 0.5
12 | CC(O)[C@@H]1CN(c2ccc(-c3ccc(-c4nnn(C5CC5)n4)nc3)c(F)c2)C(=O)O1.O=P(O)(O)O (stereo partly drawn) [compound 114, (S)-3-(3-fluoro-4-(6-(2-cyclopropyl-2H-tetrazol-5-yl)pyridin-3-yl)phenyl)-5-(1-hydroxyethyl) oxazolidin-2-one phosphate] | 0.3 | 0.3 |  | 
13 | Cn1nnc(-c2ccc(-c3ccc(N4C[C@H](COP(=O)(O)O)OC4=O)cc3F)cn2)n1 [Tedizolid phosphate, reference compound] | 2 | 2 |  | 
14 | Cn1nnc(-c2ccc(-c3ccc(N4C[C@H](C(O)C(F)(F)F)OC4=O)cc3F)cn2)n1.O=P(O)(O)O (stereo partly drawn) [compound 93, (R)-3-(3-fluoro-4-(6-(2-methyl-2H-tetrazol-5-yl)pyridin-3-yl)phenyl)-5-(1-hydroxy-2-trifluoroethyl) oxazolidin-2-one phosphate] |  |  | 0.7 | 0.7
15 | Cn1nnc(-c2ccc(-c3ccc(N4C[C@H](C(O)CF)OC4=O)cc3F)cn2)n1.O=P(O)(O)O (stereo partly drawn) [compound 129, (R)-3-(3-fluoro-4-(6-(2-methyl-2H-tetrazol-5-yl)pyridin-3-yl)phenyl)-5-(1-hydroxy-2-fluoroethyl) oxazolidin-2-one phosphate] | 0.3 | 0.5 |  | 
16 | O=C1O[C@@H](C(O)C(F)(F)F)CN1c1ccc(-c2ccc(-c3nnn(C4CC4)n3)nc2)c(F)c1.O=P(O)(O)O (stereo partly drawn) [compound 111, (R)-3-(3-fluoro-4-(6-(2-cyclopropyl-2H-tetrazol-5-yl)pyridin-3-yl)phenyl)-5-(1-hydroxy-2-trifluoroethyl) oxazolidin-2-one phosphate] |  |  | 0.3 | 0.3
17 | Cn1nnc(-c2ccc(-c3ccc(N4C[C@H](C(O)C5CC5)OC4=O)cc3F)cn2)n1.O=P(O)(O)O (stereo partly drawn) [compound 131, (R)-3-(3-fluoro-4-(6-(2-methyl-2H-tetrazol-5-yl)pyridin-3-yl)phenyl)-5-(1-hydroxy-1-cyclopropylmethyl) oxazolidin-2-one phosphate] | 0.1 | 0.2 |  | 
18 | CCn1nnc(-c2ccc(-c3ccc(N4C[C@@H](C(OP(=O)(O)O)C(F)(F)F)OC4=O)cc3F)cn2)n1 (stereo partly drawn) [compound 96, (S)-3-(3-fluoro-4-(6-(2-ethyl-2H-tetrazol-5-yl)pyridin-3-yl)phenyl)-5-(1-hydroxy-2-trifluoroethyl) oxazolidin-2-one phosphate] |  |  | 0.8 | 0.8
19 | C=Cn1nnc(-c2ccc(-c3ccc(N4C[C@H](C(O)CF)OC4=O)cc3F)cn2)n1.O=P(O)(O)O (stereo partly drawn) [compound 153, (R)-3-(3-fluoro-4-(6-(2-vinyl-2H-tetrazol-5-yl)pyridin-3-yl)phenyl)-5-(1-hydroxy-2-fluoroethyl) oxazolidin-2-one phosphate] | 0.1 | 0.2 |  | 
20 | CCC(OP(=O)(O)O)[C@@H]1CN(c2ccc(-c3ccc(-c4nnn(C5CC5)n4)nc3)c(F)c2)C(=O)O1 (stereo partly drawn) [compound 116, (S)-3-(3-fluoro-4-(6-(2-cyclopropyl-2H-tetrazol-5-yl)pyridin-3-yl)phenyl)-5-(1-hydroxypropyl)) oxazolidin-2-one phosphate] |  |  | 0.3 | 0.2
21 | Cn1nnc(-c2ccc(-c3ccc(N4C[C@H](C(O)C(F)F)OC4=O)cc3F)cn2)n1.O=P(O)(O)O (stereo partly drawn) [compound 127, (R)-3-(3-fluoro-4-(6-(2-methyl-2H-tetrazol-5-yl)pyridin-3-yl)phenyl)-5-(1-hydroxy-2-difluoroethyl) oxazolidin-2-one phosphate] |  |  | 0.7 | 0.6
22 | O=C1O[C@H](C(F)OP(=O)(O)O)CN1c1ccc(-c2ccc(-c3nnn(C4CC4)n3)nc2)c(F)c1 (stereo partly drawn) [compound 118, (S)-3-(3-fluoro-4-(6-(2-cyclopropyl-2H-tetrazol-5-yl)pyridin-3-yl)phenyl)-5-(hydroxyfluoromethyl)) oxazolidin-2-one phosphate] |  |  | 0.6 | 0.6
23 | O=C1O[C@@H](C(O)F)CN1c1ccc(-c2ccc(-c3nnn(C4CC4)n3)nc2)c(F)c1.O=P(O)(O)O (stereo partly shown) [compound 117] |  |  | 0.4 | 0.4
24 | CCCn1nnc(-c2ccc(-c3ccc(N4C[C@H](C(C)O)OC4=O)cc3F)cn2)n1.O=P(O)(O)O (stereo partly drawn) [compound 105, (R)-3-(3-fluoro-4-(6-(2-propyl-2H-tetrazol-5-yl)pyridin-3-yl)phenyl)-5-(1-hydroxyethyl) oxazolidin-2-one phosphate] | 1.3 | 1.4 |  | 
25 | CCn1nnc(-c2ccc(-c3ccc(N4C[C@@H](C(O)C5CC5)OC4=O)cc3F)cn2)n1.O=P(O)(O)O (stereo partly drawn) [compound 138, (S)-3-(3-fluoro-4-(6-(2-ethyl-2H-tetrazol-5-yl)pyridin-3-yl)phenyl)-5-(1-hydroxy-1-cyclopropylmethyl) oxazolidin-2-one phosphate] | 1 | 1 |  | 
26 | CCCn1nnc(-c2ccc(-c3ccc(N4C[C@@H](C(O)C(F)F)OC4=O)cc3F)cn2)n1.O=P(O)(O)O (stereo partly drawn) [compound 140, (S)-3-(3-fluoro-4-(6-(2-propyl-2H-tetrazol-5-yl)pyridin-3-yl)phenyl)-5-(1-hydroxy-2-difluoroethyl) oxazolidin-2-one phosphate] |  |  | 0.4 | 0.4
